Experimental data as given in patent US10538512B2, “Aminoacylindazole immunomodulators for treatment of autoimmune diseases” (The Rockefeller University, priority 2016, dated 2020).
pIC50: −log10 of the molar value.

Biological target: T1, Human FXIIa (Homo sapiens, UniProt P00748)
T1 construct: active coagulation factor XII (FXIIa); purchased Enzyme Research Labs
T1 sequence (P00748 373-615 limits assumed): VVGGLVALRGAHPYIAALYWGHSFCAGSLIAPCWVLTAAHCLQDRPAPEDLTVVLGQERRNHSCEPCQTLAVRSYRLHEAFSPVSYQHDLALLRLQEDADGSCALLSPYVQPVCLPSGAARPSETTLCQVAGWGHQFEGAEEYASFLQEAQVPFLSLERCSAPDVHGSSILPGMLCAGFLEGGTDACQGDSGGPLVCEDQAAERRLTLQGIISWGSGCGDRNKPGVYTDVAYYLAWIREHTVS
T1 sequence (P00748 20-372 partner limits assumed): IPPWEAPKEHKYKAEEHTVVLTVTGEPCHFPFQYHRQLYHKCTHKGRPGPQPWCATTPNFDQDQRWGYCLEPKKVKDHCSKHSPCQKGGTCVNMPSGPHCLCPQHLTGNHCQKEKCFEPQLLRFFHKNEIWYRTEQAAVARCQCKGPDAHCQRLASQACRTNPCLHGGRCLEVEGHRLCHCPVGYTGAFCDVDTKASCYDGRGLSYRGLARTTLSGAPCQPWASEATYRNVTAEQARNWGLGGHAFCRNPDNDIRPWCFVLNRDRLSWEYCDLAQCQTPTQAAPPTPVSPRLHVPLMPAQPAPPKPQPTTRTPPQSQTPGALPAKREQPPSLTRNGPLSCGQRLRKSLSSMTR
Assay: Factor XIIa (FXIIa) inhibitory activity, chromogenic substrate assay
Assay type: biochemical
Details: Human FXIIa 12.5 nM, Pefachrome XIIa 400 μM, 10 min preincubation
Procedure: Factor XIIa (FXIIa) Inhibitory Activity:
In a 96-well clear bottom plate, 80 μl of assay buffer was added to each well. Assay buffer consists of 0.5× Hank's Balanced Salt Solution (Invitrogen), buffered with 25 mM HEPES pH 7.4 (Invitrogen) and 0.5× Tris-buffered saline with Tween-20 0.05% (Santa Cruz Biotechnology). Test compounds were first dissolved in DMSO (Sigma) and then 4 μl were added to test wells containing assay buffer. Serial dilutions using an automated multi-channel pipette were used to generate a concentration range of approximately 1-100 μM. […] 80 μl of this enzyme solution was added to the assay wells. The enzyme/compound mixtures were incubated for 10 minutes at room temperature. Chromogenic substrate (Pefachrome XIIa; Enzyme Research Labs) was added to assay wells at a final concentration of 400 μM. The assay plate was spun for 1 minute at 1500 g and then read at 37° C. in a SpectraMax M2 plate reader (λ=405 nm). Activity was quantified as the rate of change in absorbance, which corresponds to the rate of substrate cleavage.

Row | SMILES | pIC50
1 | Cc1cccc2c1NCCC2C(=O)n1nc2c(c1N)C=CCC2 (single isomer, unassigned) [Example 194, (R*)-(3-amino-6,7-dihydroindazol-2-yl)(8-methyl-1,2,3,4-tetrahydroquinolin-4-yl)methanone] | 5.15
2 | Nc1c2c(nn1C(=O)c1cccc3[nH]ncc13)CCCC2 [Example 47, (3-amino-4,5,6,7-tetrahydroindazol-2-yl)(1H-indazol-4-yl)methanone] | 7.52
3 | Nc1c2c(nn1C(=O)[C@@H]1CCNc3ccc(Cl)cc31)CC[C@@H](O)C2 (single isomer, unassigned) [Example 147, ((5R*)-3-amino-5-hydroxy-4,5,6,7-tetrahydroindazol-2-yl)((4R*)-6-chloro-1,2,3,4-tetrahydroquinolin-4-yl)methanone] | 4.48
4 | Nc1c2c(nn1C(=O)[C@H]1CCNc3c(Cl)cccc31)C[C@@H](O)CC2 (single isomer, unassigned) [Example 207, ((6S*)-3-amino-6-hydroxy-4,5,6,7-tetrahydroindazol-2-yl)((4S*)-8-chloro-1,2,3,4-tetrahydroquinolin-4-yl)methanone] | 6.80
5 | Nc1c2c(nn1C(=O)c1ccnc3cc(Cl)ccc13)CCCC2 [Example 123, (3-amino-4,5,6,7-tetrahydro-2H-indazol-2-yl)(7-chloroquinolin-4-yl)methanone] | 5.60
6 | Nc1c2c(nn1C(=O)C1CCNc3ccc(F)cc31)CCC(NC(=O)OCc1ccccc1)C2 (single isomer, unassigned) [Example 186, benzyl (5R*)-3-amino-2-(6-fluoro-1,2,3,4-tetrahydroquinoline-4-carbonyl)-4,5,6,7-tetrahydro-2H-indazol-5-ylcarbamate] | 5.60
7 | Nc1nn(C(=O)[C@H]2CCNc3ccc(F)cc32)c2c1C[C@@H](O)CC2 (single isomer, unassigned) [Example 135, ((5S*)-3-amino-5-hydroxy-4,5,6,7-tetrahydro-1H-indazol-1-yl)((4S*)-6-fluoro-1,2,3,4-tetrahydroquinolin-4-yl)methanone] | 4.62
8 | Nc1nn(C(=O)[C@@H]2CCNc3ccc(F)cc32)c2c1C[C@H](O)CC2 (relative stereo) [Example 132, ((5R*)-3-amino-5-hydroxy-4,5,6,7-tetrahydro-2H-indazol-1-yl)((4R*)-6-fluoro-1,2,3,4-tetrahydroquinolin-4-yl)methanone] | < 4.05
9 | CCc1cc2c([nH]1)CCCC2C(=O)n1nc2c(c1N)CCCC2 (single isomer, unassigned) [Example 83, (S*)-(3-amino-4,5,6,7-tetrahydroindazol-2-yl)(2-ethyl-4,5,6,7-tetrahydro-1H-indol-4-yl)methanone] | 7.70
10 | Nc1nn(C(=O)[C@H]2CCNc3ccc(Cl)cc32)c2c1C[C@@H](O)CC2 (single isomer, unassigned) [Example 146, ((5S*)-3-amino-5-hydroxy-4,5,6,7-tetrahydroindazol-1-yl)((4S*)-6-chloro-1,2,3,4-tetrahydroquinolin-4-yl)methanone] | < 4.10
11 | Nc1c2c(nn1C(=O)c1cccc3c1CC(=O)N3)CCCC2 (single isomer, unassigned) [Example 64, 4-(3-amino-4,5,6,7-tetrahydro-2H-indazole-2-carbonyl)indolin-2-one] | 6.70
12 | Nc1nn(C(=O)C2CCNc3ccc(F)cc32)c2c1CC(F)(F)CC2 (stereo not drawn) [Example 175, (3-amino-5,5-difluoro-4,5,6,7-tetrahydroindazol-1-yl)(6-fluoro-1,2,3,4-tetrahydroquinolin-4-yl)methanone] | 4.80
13 | Nc1c2c(nn1C(=O)[C@@H]1CCNc3c(Cl)cccc31)C[C@@H](O)CC2 (single isomer, unassigned) [Example 206, ((6S*)-3-amino-6-hydroxy-4,5,6,7-tetrahydroindazol-2-yl)((4R*)-8-chloro-1,2,3,4-tetrahydroquinolin-4-yl)methanone] | 5.55
14 | Nc1c2c(nn1C(=O)[C@@H]1CCNc3ccc(F)cc31)CC[C@H](F)C2 (single isomer, unassigned) [Example 141, ((5S*)-3-amino-5-fluoro-4,5,6,7-tetrahydroindazol-2-yl)((4R*)-6-fluoro-1,2,3,4-tetrahydroquinolin-4-yl)methanone] | 4.77
15 | Nc1c2c(nn1C(=O)[C@@H]1CCNc3ccc(F)cc31)CC[C@@H](O)C2 (single isomer, unassigned) [Example 130, ((5R*)-3-amino-5-hydroxy-4,5,6,7-tetrahydro-2H-indazol-2-yl)(4(R*)-6-fluoro-1,2,3,4-tetrahydroquinolin-4-yl)methanone] | 4.35

Second part, the compound after the results:

Row | pIC50 | SMILES
16 | 6.40 | Nc1c2c(nn1C(=O)C1CCNc3cc(F)ccc31)CCCC2 (stereo not drawn) [Example 115, (3-amino-4,5,6,7-tetrahydroindazol-2-yl)(7-fluoro-1,2,3,4-tetrahydroquinolin-4-yl)methanone]
17 | 6.07 | Cn1cc2c(n1)CCCC2C(=O)n1nc2c(c1N)CCCC2 (stereo not drawn) [Example 88, (3-amino-4,5,6,7-tetrahydroindazol-2-yl)(2-methyl-4,5,6,7-tetrahydro-2H-indazol-4-yl)methanone]
18 | 6.40 | Cn1ccc2c1CCCC2C(=O)n1nc2c(c1N)CCCC2 (single isomer, unassigned) [Example 97, (S*)-(3-amino-4,5,6,7-tetrahydroindazol-2-yl)(1-methyl-4,5,6,7-tetrahydro-1H-indol-4-yl)methanone]
19 | 6.15 | Nc1c2c(nn1C(=O)C1CCNc3cc(Cl)ccc31)CCCC2 (stereo not drawn) [Example 103, (3-amino-4,5,6,7-tetrahydroindazol-2-yl)(7-chloro-1,2,3,4-tetrahydroquinolin-4-yl)methanone]
20 | 6.82 | Nc1c2c(nn1C(=O)C1CCNc3ccccc31)CCCC2 (single isomer, unassigned) [Example 78, (R*)-(3-amino-4,5,6,7-tetrahydroindazol-2-yl)(1,2,3,4-tetrahydroquinolin-4-yl)methanone]
21 | 7.15 | Nc1c2c(nn1C(=O)C1CCCc3[nH]c(Br)cc31)CCCC2 (single isomer, unassigned) [Example 108, (S*)-(3-amino-4,5,6,7-tetrahydroindazol-2-yl)(2-bromo-4,5,6,7-tetrahydro-1H-indol-4-yl)methanone]
22 | 6.52 | CN1CCC(C(=O)n2nc3c(c2N)CCCC3)c2ccccc21 (single isomer, unassigned) [Example 25, (3-Amino-4,5,6,7-tetrahydroindazol-2-yl)(1-methyl-1,2,3,4-tetrahydroquinolin-4-yl)methanone]
23 | 5.30 | CN1CCC(C(=O)n2nc3c(c2N)CCCC3)c2cccnc21 (stereo not drawn) [Example 87, (3-amino-4,5,6,7-tetrahydroindazol-2-yl)(1-methyl-1,2,3,4-tetrahydro-1,8-naphthyridin-4-yl)methanone]
24 | 5.74 | Nc1c2c(nn1C(=O)C1CCNc3cc(C(F)(F)F)ccc31)CCCC2 (stereo not drawn) [Example 105, (3-amino-4,5,6,7-tetrahydro-2H-indazol-2-yl)(7-(trifluoromethyl)-1,2,3,4-tetrahydroquinolin-4-yl)methanone]
25 | 6.60 | COc1ccc2c(c1)NCCC2C(=O)n1nc2c(c1N)CCCC2 (stereo not drawn) [Example 110, (3-amino-4,5,6,7-tetrahydroindazol-2-yl)(7-methoxy-1,2,3,4-tetrahydroquinolin-4-yl)methanone]

Biological target: T2, Human alpha-thrombin (Homo sapiens, UniProt P00734)
T2 construct: Human alpha-thrombin (Enzyme Research Labs); purchased Enzyme Research Labs
Assay: Thrombin counterscreen for selectivity, fluorogenic substrate assay
Assay type: biochemical
Details: Human alpha-thrombin 12.5 nM, Boc-Val-Pro-Arg-AMC 20 μM, 10 min preincubation
Procedure: Counterscreens for Selectivity:
In a 96-well white opaque plate, 80 μl of assay buffer was added to each well. Test compounds were added, and serially diluted as above, to generate a concentration range of approximately 1-100 μM. […] 80 μl of this enzyme solution was added to the assay wells. The enzyme/compound mixtures were incubated for 10 minutes at room temperature. Fluorogenic substrate (Boc-Val-Pro-Arg-7-amido-4-methylcoumarin; Sigma) was added to assay wells at a final concentration of 20 μM. The assay plate was spun for 1 minute at 1500 g and then read at 37° C. in a SpectraMax M2 plate reader (λex=380 nm and λem=460 nm). Activity was quantified as the rate of change in fluorescence, which corresponds to the rate of substrate cleavage.

Row | pIC50 | SMILES
26 | < 4.00 | Nc1nn(C(=O)c2c[nH]c3ccccc23)c2c1CCCC2 [Example 155]
27 | < 4.00 | Nc1c2c(nn1C(=O)[C@@H]1CCNc3ccccc31)CC[C@@H](O)C2 (single isomer, unassigned) [Example 166, ((5R*)-3-amino-5-hydroxy-4,5,6,7-tetrahydroindazol-2-yl)((4R*)-1,2,3,4-tetrahydroquinolin-4-yl)methanone]
